Tested on: 138582-337-R-J1-PDC complex spheroid viability
Assay: Anticancer human tumor 138582-337-R-J1-PDC patient-derived Merkel cell tumor cell line growth inhibition
Conditions: for IC50: curve of first compound; for viability, T/C: stronger effect = lower value
Outline: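 Multicellular complex spheroids of tumor cells with human endothelial cells (HUVEC) and mesenchymal stem cells; the LSD1 inhibitor iadademstat was combined with standard-of-care or investigational agents. Top concentration at or near clinical Cmax, half-log dilutions; final DMSO ≤0.25%.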

[1] = second compound 0.1 µM, first compound 0.00316 µM
[2] = second compound 0.1 µM, first compound 0.01 µM
[3] = second compound 0.1 µM, first compound 0.0316 µM
[4] = second compound 0.1 µM, first compound 0.1 µM
[5] = second compound 0.316 µM, first compound 0.00316 µM
[6] = second compound 0.316 µM, first compound 0.01 µM
[7] = second compound 0.316 µM, first compound 0.0316 µM
[8] = second compound 0.316 µM, first compound 0.1 µM
[9] = second compound 1 µM, first compound 0.00316 µM
[10] = second compound 1 µM, first compound 0.01 µM
[11] = second compound 1 µM, first compound 0.0316 µM
[12] = second compound 1 µM, first compound 0.1 µM
[13] = second compound 3.16 µM, first compound 0.00316 µM
[14] = second compound 3.16 µM, first compound 0.01 µM
[15] = second compound 3.16 µM, first compound 0.0316 µM
[16] = second compound 3.16 µM, first compound 0.1 µM
[17] = second compound 10 µM, first compound 0.00316 µM
[18] = second compound 10 µM, first compound 0.01 µM
[19] = second compound 10 µM, first compound 0.0316 µM
[20] = second compound 10 µM, first compound 0.1 µM
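Further: spheroids exposed to agents for 7 days.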
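Wherever viability, T/C is given: 100% = DMSO vehicle control viability.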

Q: How did the IC50 (second compound 0.1 µM) turn out when `CC1COCCN1c1cc(-c2ccnn2C)c2ccnc(-c3ccn[nH]3)c2n1` (stereo not given) + NC1CCC(NC2CC2c2ccccc2)CC1 was run?
A: 441 nM

Q: And the IC50 (second compound 0.316 µM)?
A: 231 nM

Q: And the IC50 (second compound 1 µM)?
A: 454 nM

Q: What about the IC50 (second compound 3.16 µM) of the same molecule?
A: 332 nM

Q: And the IC50 (second compound 10 µM)?
A: 332 nM

Q: What about the viability, T/C [1] of the same molecule?
A: 90.8%

Q: What about the viability, T/C [2] of the same molecule?
A: 91.8%

Q: What about the viability, T/C [3] of the same molecule?
A: 77.4%

Q: And the viability, T/C [4]?
A: 75.8%

Q: And the viability, T/C (second compound 0.1 µM, first compound 0.316 µM)?
A: 53.8%

Q: And the viability, T/C (second compound 0.1 µM, first compound 1 µM)?
A: 36.7%

Q: What about the viability, T/C [5] of the same molecule?
A: 76.9%

Q: What about the viability, T/C [6] of the same molecule?
A: 104%

Q: And the viability, T/C [7]?
A: 91.3%

Q: What about the viability, T/C [8] of the same molecule?
A: 65%

Q: And the viability, T/C (second compound 0.316 µM, first compound 0.316 µM)?
A: 47.9%

Q: And the viability, T/C (second compound 0.316 µM, first compound 1 µM)?
A: 38.2%

Q: What about the viability, T/C [9] of the same molecule?
A: 110%

Q: What about the viability, T/C [10] of the same molecule?
A: 101%

Q: And the viability, T/C [11]?
A: 80%

Q: What about the viability, T/C [12] of the same molecule?
A: 70%

Q: And the viability, T/C (second compound 1 µM, first compound 0.316 µM)?
A: 50.3%

Q: What about the viability, T/C (second compound 1 µM, first compound 1 µM) of the same molecule?
A: 44.7%

Q: And the viability, T/C [13]?
A: 89%

Q: And the viability, T/C [14]?
A: 77.9%

Q: What about the viability, T/C [15] of the same molecule?
A: 77.3%

Q: And the viability, T/C [16]?
A: 69.2%

Q: What about the viability, T/C (second compound 3.16 µM, first compound 0.316 µM) of the same molecule?
A: 47.9%

Q: And the viability, T/C (second compound 3.16 µM, first compound 1 µM)?
A: 40.1%

Q: What about the viability, T/C [17] of the same molecule?
A: 75.7%

Q: And the viability, T/C [18]?
A: 73.4%

Q: And the viability, T/C [19]?
A: 72.6%

Q: And the viability, T/C [20]?
A: 67.4%

Q: And the viability, T/C (second compound 10 µM, first compound 0.316 µM)?
A: 50.2%

Q: What about the viability, T/C (second compound 10 µM, first compound 1 µM) of the same molecule?
A: 42.6%

Q: Which IC50 (second compound 0.1 µM) does the source give for `Nc1ncn(C2CC(O)C(CO)S2)c(=O)n1` (stereo not given) + NC1CC1c1ccc(-c2cccc(O)c2)cc1 here?
A: > 300 nM

Q: What about the IC50 (second compound 0.316 µM) of the same molecule?
A: > 300 nM

Q: What about the IC50 (second compound 1 µM) of the same molecule?
A: > 300 nM

Q: What about the IC50 (second compound 3.16 µM) of the same molecule?
A: > 300 nM

Q: What about the IC50 (second compound 10 µM) of the same molecule?
A: > 300 nM

Q: What about the viability, T/C (second compound 0.1 µM, first compound 0.000949 µM) of the same molecule?
A: 79.6%

Q: And the viability, T/C (second compound 0.1 µM, first compound 0.003 µM)?
A: 83.8%

Q: What about the viability, T/C (second compound 0.1 µM, first compound 0.00949 µM) of the same molecule?
A: 69.2%

Q: And the viability, T/C (second compound 0.1 µM, first compound 0.03 µM)?
A: 73%

Q: What about the viability, T/C (second compound 0.1 µM, first compound 0.0949 µM) of the same molecule?
A: 77.1%

Q: And the viability, T/C (second compound 0.1 µM, first compound 0.3 µM)?
A: 69.3%

Q: What about the viability, T/C (second compound 0.316 µM, first compound 0.000949 µM) of the same molecule?
A: 68.5%

Q: What about the viability, T/C (second compound 0.316 µM, first compound 0.003 µM) of the same molecule?
A: 80.1%

Q: What about the viability, T/C (second compound 0.316 µM, first compound 0.00949 µM) of the same molecule?
A: 77.9%

Q: What about the viability, T/C (second compound 0.316 µM, first compound 0.03 µM) of the same molecule?
A: 76.6%

Q: And the viability, T/C (second compound 0.316 µM, first compound 0.0949 µM)?
A: 79.1%

Q: And the viability, T/C (second compound 0.316 µM, first compound 0.3 µM)?
A: 78.3%

Q: And the viability, T/C (second compound 1 µM, first compound 0.000949 µM)?
A: 71.8%

Q: And the viability, T/C (second compound 1 µM, first compound 0.003 µM)?
A: 70.8%

Q: And the viability, T/C (second compound 1 µM, first compound 0.00949 µM)?
A: 70.8%

Q: What about the viability, T/C (second compound 1 µM, first compound 0.03 µM) of the same molecule?
A: 68%

Q: And the viability, T/C (second compound 1 µM, first compound 0.0949 µM)?
A: 76.6%

Q: And the viability, T/C (second compound 1 µM, first compound 0.3 µM)?
A: 87.5%

Q: What about the viability, T/C (second compound 3.16 µM, first compound 0.000949 µM) of the same molecule?
A: 84.5%

Q: And the viability, T/C (second compound 3.16 µM, first compound 0.003 µM)?
A: 78.9%

Q: What about the viability, T/C (second compound 3.16 µM, first compound 0.00949 µM) of the same molecule?
A: 84.9%

Q: And the viability, T/C (second compound 3.16 µM, first compound 0.03 µM)?
A: 71.8%

Q: What about the viability, T/C (second compound 3.16 µM, first compound 0.0949 µM) of the same molecule?
A: 77.8%

Q: And the viability, T/C (second compound 3.16 µM, first compound 0.3 µM)?
A: 68.9%

Q: What about the viability, T/C (second compound 10 µM, first compound 0.000949 µM) of the same molecule?
A: 74.3%

Q: And the viability, T/C (second compound 10 µM, first compound 0.003 µM)?
A: 82%

Q: What about the viability, T/C (second compound 10 µM, first compound 0.00949 µM) of the same molecule?
A: 88.5%

Q: And the viability, T/C (second compound 10 µM, first compound 0.03 µM)?
A: 89.7%

Q: And the viability, T/C (second compound 10 µM, first compound 0.0949 µM)?
A: 93.4%

Q: And the viability, T/C (second compound 10 µM, first compound 0.3 µM)?
A: 89.9%

Q: `CC[C@@]1(O)C(=O)OCc2c1cc1n(c2=O)Cc2cc3c(CN(C)C)c(O)ccc3nc2-1` + NC1CC1c1ccc(-c2cccc(O)c2)cc1 was tested. Which IC50 (second compound 0.1 µM) did it give?
A: > 100 nM

Q: And the IC50 (second compound 0.316 µM)?
A: > 100 nM

Q: What about the IC50 (second compound 1 µM) of the same molecule?
A: > 100 nM

Q: And the IC50 (second compound 3.16 µM)?
A: > 100 nM

Q: And the IC50 (second compound 10 µM)?
A: > 100 nM

Q: What about the viability, T/C (second compound 0.1 µM, first compound 0.000316 µM) of the same molecule?
A: 70.6%

Q: And the viability, T/C (second compound 0.1 µM, first compound 0.001 µM)?
A: 71.1%

Q: And the viability, T/C [1]?
A: 63.5%

Q: What about the viability, T/C [2] of the same molecule?
A: 80%

Q: And the viability, T/C [3]?
A: 68.5%

Q: What about the viability, T/C [4] of the same molecule?
A: 76.8%

Q: And the viability, T/C (second compound 0.316 µM, first compound 0.000316 µM)?
A: 80.2%

Q: What about the viability, T/C (second compound 0.316 µM, first compound 0.001 µM) of the same molecule?
A: 70.7%

Q: And the viability, T/C [5]?
A: 73.2%

Q: What about the viability, T/C [6] of the same molecule?
A: 68.5%

Q: What about the viability, T/C [7] of the same molecule?
A: 66.6%

Q: What about the viability, T/C [8] of the same molecule?
A: 75.9%

Q: What about the viability, T/C (second compound 1 µM, first compound 0.000316 µM) of the same molecule?
A: 70.8%

Q: And the viability, T/C (second compound 1 µM, first compound 0.001 µM)?
A: 70.7%

Q: And the viability, T/C [9]?
A: 80.2%

Q: And the viability, T/C [10]?
A: 71.1%

Q: And the viability, T/C [11]?
A: 61.3%

Q: What about the viability, T/C [12] of the same molecule?
A: 74.3%

Q: And the viability, T/C (second compound 3.16 µM, first compound 0.000316 µM)?
A: 75.6%

Q: And the viability, T/C (second compound 3.16 µM, first compound 0.001 µM)?
A: 74.8%

Q: What about the viability, T/C [13] of the same molecule?
A: 85.6%

Q: And the viability, T/C [14]?
A: 81.8%

Q: What about the viability, T/C [15] of the same molecule?
A: 66.4%

Q: What about the viability, T/C [16] of the same molecule?
A: 66.4%

Q: What about the viability, T/C (second compound 10 µM, first compound 0.000316 µM) of the same molecule?
A: 82.8%

Q: What about the viability, T/C (second compound 10 µM, first compound 0.001 µM) of the same molecule?
A: 81.2%

Q: And the viability, T/C [17]?
A: 100%

Q: What about the viability, T/C [18] of the same molecule?
A: 90.3%

Q: What about the viability, T/C [19] of the same molecule?
A: 77.3%

Q: What about the viability, T/C [20] of the same molecule?
A: 67.8%

Reference: PubChem BioAssay AID1918931 (Molecular Pharmacology Branch, DTP, NCI, 2023)
